Laboratory results from patent US8633165B2, “Neuroprotective effects of 2DG in traumatic brain injury” (Wisconsin Alumni Research Foundation, priority 2010, dated 2014).
Entries after “also recorded” stand apart in the source; their conditions may differ.

Columns and labels:
mice = conditions: Stafstrom et al., 2009; cited from earlier work
[1] = system: rats with TBI induced by CCI in fronto-parietal and temporo-parietal cortex; experiment: Lateral ventricle volume by T2W MRI after TBI induced by controlled cortical impact (CCI); assay type: in vivo, rat; conditions: for proportional change in lateral ventricle volume from 1 week to 1 month following injury: in vivo T2W MRI, 2DG 40 mg/kg IP 30 min prior to CCI, then 250 mg/kg immediately after and twice daily for 2 weeks, change significantly greater for saline than 2DG (p=0.015)
Excerpt: “Fast” rats and “slow” rats from the 9th-11th generations selected by these procedures were subjected to TBI induced by the method of controlled cortical impact (CCI) using published protocols (see Dixon et al., 1991, J. Neuro. Meth. 39: 253-262). During the induction of TBI by CCI, the rats were deeply anesthetized with isoflurane (3% for induction, 1.5-2.5% for maintenance) and were placed in a stereotaxic frame. After craniotomy with the dura intact, anesthesia was reduced to 1% isoflurane for a 5-min equilibration period and CCI was performed over temporo-parietal cortex (−1 to −6 mm from bregma, below lateral skull ridge) and fronto-parietal cortex (+5.3 to −0.3 mm from bregma, below lateral skull ridge), which are more and less likely, respectively, to damage the hippocampus and amygdala. Brain lesions were induced by a digitally-controlled contusion device using a pneumatically driven impactor with a sterilized rounded stainless steel tip (3-4 mm in diameter) which compresses the cortex with a specified velocity, depth, and dwell time varied to induce a range of injury severity (ranging from mild, with parameters of 4.0 m/s, 1.0 mm deformation, dwell time 50 mS, to severe, at 6.0 m/s, 2.5 mm deformation, dwell time 50 mS). […]
The effects of 2DG on TBI induced by CCI in fronto-parietal and temporo-parietal cortex were evaluated in “fast” kindling-susceptible and “slow” kindling-resistant rats. […]
(§1) The effects of 2DG treatment on the location, severity, and progression of induced cortical and subcortical damage were assessed in serial in vivo magnetic resonance imaging (MRI) and diffusion tensor imaging (DTI) studies at 1 week, 1 month, and 6 months after TBI as well as high-resolution ex vivo DTI of brains harvested from the same rats following the final in vivo imaging session. DTI is an advanced MRI modality that offers a unique view of the brain in its ability to report quantitative microstructural information at the whole-brain and in vivo scales. […]

rats [2] = conditions: rat, in vivo, 250 mg/kg
Procedure: For example, dosage amount and interval of 2-DG administration can be adjusted individually to reduce incidence, frequency, duration or intensity of deleterious sequellae of TBI, particularly PTE, using doses of 40 mg/kg or less to higher as tolerated to reduce seizure frequency and minimize toxicity. […] A practitioner skilled in the art can adjust dosage in the range of 2-250 mg/kg and the timing of administration to produce prolonged neuroprotectant effects. Efficacious dosage amounts can be adjusted in children and adults, for establishing effective dosage levels.

[3] = system: rats with TBI induced by CCI in fronto-parietal and temporo-parietal cortex; experiment: Hippocampal DTI measures (MD, FA laterality index) after TBI induced by CCI; assay type: in vivo, rat; conditions: for in vivo hippocampal FA laterality index (LRI): fast and slow kindling strains, strain by treatment interaction p=0.088, saline vs 2DG at 1 month p=0.08; for change in in vivo ipsilateral hippocampal MD between 1 week and 6 months: paired t-test: saline p=0.0026, 2DG p=0.289, treatment by time interaction p=0.064
Excerpt: (§2) “Fast” rats and “slow” rats from the 9th-11th generations selected by these procedures were subjected to TBI induced by the method of controlled cortical impact (CCI) using published protocols (see Dixon et al., 1991, J. Neuro. Meth. 39: 253-262). During the induction of TBI by CCI, the rats were deeply anesthetized with isoflurane (3% for induction, 1.5-2.5% for maintenance) and were placed in a stereotaxic frame. After craniotomy with the dura intact, anesthesia was reduced to 1% isoflurane for a 5-min equilibration period and CCI was performed over temporo-parietal cortex (−1 to −6 mm from bregma, below lateral skull ridge) and fronto-parietal cortex (+5.3 to −0.3 mm from bregma, below lateral skull ridge), which are more and less likely, respectively, to damage the hippocampus and amygdala. Brain lesions were induced by a digitally-controlled contusion device using a pneumatically driven impactor with a sterilized rounded stainless steel tip (3-4 mm in diameter) which compresses the cortex with a specified velocity, depth, and dwell time varied to induce a range of injury severity (ranging from mild, with parameters of 4.0 m/s, 1.0 mm deformation, dwell time 50 mS, to severe, at 6.0 m/s, 2.5 mm deformation, dwell time 50 mS). Anesthesia was then administered at maintenance levels (1.5-2.5%), the craniotomy and wound were closed, and the rats were allowed to recover. The location, severity, and progression of induced cortical and subcortical damage was examined by serial in vivo magnetic resonance imaging (MRI) and diffusion tensor imaging (DTI) techniques at 1 week, 1 month, and 6 months after TBI.
(§3) The effects of 2DG on TBI induced by CCI in fronto-parietal and temporo-parietal cortex were evaluated in “fast” kindling-susceptible and “slow” kindling-resistant rats. Half of the rats from these strains received 2DG at 40 mg/kg IP 30 min prior to CCI, and then 250 mg/kg immediately after and twice daily for 2 weeks. These rats were compared to control groups with TBI induced by CCI that were treated only with an equivalent volume of saline. Both treatment groups were also compared to sham-injured rats that underwent all aspects of the experimental manipulations except for CCI.
The effects of 2DG treatment on the location, severity, and progression of induced cortical and subcortical damage were assessed in serial in vivo magnetic resonance imaging (MRI) and diffusion tensor imaging (DTI) studies at 1 week, 1 month, and 6 months after TBI as well as high-resolution ex vivo DTI of brains harvested from the same rats following the final in vivo imaging session. DTI is an advanced MRI modality that offers a unique view of the brain in its ability to report quantitative microstructural information at the whole-brain and in vivo scales. The most commonly reported DTI indices are fractional anisotropy (FA), which characterizes the “directionalness” of tissue structure (e.g. high in white matter and low in grey matter and CSF) and mean diffusion (MD), which characterizes water status (“free” or “restricted”) due to cellular barriers (e.g. high in CSF and low in tissue). Both indices are known to be sensitive to damage and other structural changes such as tissue/circuit reorganization. This makes DTI an attractive modality to investigate disorders with known or hypothesized structural abnormalities such as TBI.
MRI scanning was performed using a Varian 4.7 T scanner and a quadrature birdcage volume coil was used to transmit and receive the MRI signal. […]

[4] = Mattson, 1999; cited from earlier work
ischemic rat = conditions: Combs et al., 1986; cited from earlier work
[5] = system: rats with TBI induced by CCI in fronto-parietal and temporo-parietal cortex; experiment: Corpus callosum and fornix DTI (FA) after TBI induced by CCI; assay type: in vivo, rat; conditions: for ex vivo corpus callosum (CC) FA: CCI location by treatment interaction p=0.038, fronto-parietal CCI
Excerpt: as §2, §3, §1

rats [6] = conditions: perforant path and olfactory bulb stimulation in rats; Garriga-Canut et al., 2006; Stafstrom et al., 2009; cited from earlier work
hippocampal brain slices = conditions: evoked by 7.5 mM [K+]o, 4-amino-pyridine, bicuculline, DHPG; Stafstrom et al., 2009; cited from earlier work

## O=CC[C@@H](O)[C@H](O)[C@H](O)CO [2DG, 2-deoxy-D-glucose]
mice
  anticonvulsant activity against seizures evoked by 6 Hz and audiogenic stimulation: acute in vivo anticonvulsant activity
[1]; brains harvested after 6 months, ANOVA treatment main effect p=0.16, strain by treatment interaction p=0.06, greater volumes for saline, most evident in slow-kindled strain
  ex vivo lateral ventricle volumes: protection from gross tissue loss
[1]
  proportional change in lateral ventricle volume from 1 week to 1 month following injury: reduced progressive volumetric changes
[1]; listed as 2-DG
  proportional change in lateral ventricle volume from 1 week to 1 month following injury: p<0.05 for the saline but not the 2-DG treated group
Rats [2]
  tolerability: well tolerated
[3]; ANOVA main effect for treatment p=0.002, compared with saline and sham-injured controls
  ex vivo ipsilateral hippocampal MD: restored MD measurements to the range of normal values observed in controls
[3]
  in vivo hippocampal FA laterality index (LRI): appeared to abolish the pattern of increased LRI over 1 week to 1 month in both strains
  change in in vivo ipsilateral hippocampal MD between 1 week and 6 months: not for the 2DG treated groups
[3]; listed as 2-DG
  in vivo hippocampal FA laterality index (LRI): reduces FA LRI in both strains
  change in in vivo ipsilateral hippocampal MD between 1 week and 6 months: no significant change
[4]
  brain damage initiated by seizures induced by kainic acid: reduced brain damage
Ischemic rat
  brain damage initiated by ischemia: reduced brain damage
[5]
  ex vivo corpus callosum (CC) FA: FA was highest for fronto-parietal, 2DG treated rats
[5]; listed as 2-DG
  ex vivo corpus callosum (CC) FA: reduced in all groups except for 2-DG treated rats with fronto-parietal CCI
[5]; fronto-parietal CCI vs temporo-parietal CCI, 2-DG vs saline
  ex vivo fornix FA: reduced in all groups except for 2-DG treated rats with fronto-parietal CCI
[5]; paired t-test: 2DG p=0.0099, saline p=0.8396, treatment by time interaction p=0.073
  in vivo anterior corpus callosum (aCC) FA, change from one week to six months: increase in aCC FA by 6 months post-CCI that nearly reaches control values; also recorded: significant change from one week to six months
Rats [6]
  slowing of progression of kindled seizures: 2 fold
Hippocampal brain slices
  epileptic discharges evoked in hippocampal brain slices: acute in vitro reduction of epileptic discharges
